Columns and labels:
[1] = tested on: normal keratinocytes and EGFR over-expressing tumor cells; settings: cited from earlier work
[2] = tested on: hyper-phosphorylated retinoblastoma protein (ppRB); settings: cited from earlier work
p27^kip1/waf1 [3] = settings: cited from earlier work
[4] = tested on: normal human neonatal epidermal keratinoctyes, NHEK; assay: Flow cytometric measurement of cell cycle arrest (BrdU incorporation / propidium iodide); format: cell-based; settings: for % G1 / % G2 / % S: 24 hr, NHEK; for effect on cell cycle phase distribution (in words): keratinocytes treated for 24 hours
Procedure: (§1) The protective effect of KGF on keratinocytes was measured in two types of assays, the first to determine its protective effect on cell cycle phase distribution against a small molecule EGFR inhibitor, and the second to determine its protective effect against ppRB depletion and p27^kip1/waf1 upregulation caused by the EGFR inhibitor. The effect of KGF on cell cycle phase distribution was measured by bivariate analysis of bromodeoxyuridine incorporation and propidium iodide uptake by […] using flow cytometry. The protective effect of KGF against ppRB depletion and p27^kip1/waf1 upregulation was measured by immunoblotting of lysates from treated and control […] cells with antibodies specific for RB and p27^kip1/waf1, respectively. The methods are described in detail below.
(§2) All experiments were carried out with normal human neonatal epidermal keratinoctyes, NHEK (Clonetics, San Diego, Calif.). Cells were maintained in Keratinocyte Growth Medium, KGM-2 (Clonetics). Human recombinant KGF expressed in E. coli as a 19 kDa protein was purchased from Sigma Chemical Co. (St. Louis, Mo.).
NHEK cells were seeded in 60-mm dishes in KGM-2. When the cells were semiconfluent, the medium was replaced with fresh medium containing the test agents: vehicle (0.125% DMSO); vehicle+20 ng/ml KGF; vehicle+0.3 μM CP-358, 774-01+/−20 ng/ml KGF; or vehicle+1 μM CP-358, 774-01+/−20 ng/ml KGF. The cells were incubated at 37° C. in a 5% CO2, humidified atmosphere. After 24 hr, bromodeoxyuridine (BrdU) was added to the medium at a final concentration of 10 μM for 30 min. The cells were then harvested using 0.25% trypsin/1 mM EDTA and counted using a Coulter counter. Aliquots of 2×10^6 cells were collected by centrifugation at 220×g for 5 min, washed in 2 ml phosphate buffered saline (PBS) containing 2.5% fetal calf serum, resuspended in 0.2 ml PBS, and fixed by the addition of 5 ml 70% ethanol at −20° C. After a 30 min incubation on ice, the cells were collected by centrifugation at 500×g for 5 min and resuspended in 25 μl PBS. One ml of 0.2 mg/ml pepsin in 2 N HCI was added and the cells were incubated for 30 min at rm temp. Cells were collected by centrifugation at 1500×g for 5 min and washed with 1 ml 0.1 M sodium borate, pH 8.5. Cells were pelleted at 1500×g for 5 min, resuspended in 1 ml of fluorescein isothiocyanate (FITC)-conjugated anti-BrdU (Becton Dickinson, San Jose, Calif.) diluted fifty-fold in PBS containing 0.5% Tween 20 and 1% bovine serum albumin, and incubated at ambient temperature in the dark for 30 min. After a final wash with PBS with 0.5% Tween 20 and 1% BSA, the cells were resuspended in PBS containing 10 μg/ml propidium iodide and 10 μg/ml RNase, filtered through a 35 µm mesh and analyzed on a FACSCalibur flow cytometer (Becton Dickinson) equipped with an argon laser with an emission wavelength of 488 nm. FITC fluorescence data was acquired at 515-545 nm, and propidium iodide fluorescence data was acquired at […]. A minimum of 20,000 cells was analyzed per sample. Data was analyzed using CellQuest software (Becton-Dickinson) and the percent of cells in each phase (G1, S, G2) of the cell cycle was calculated.

[5] = tested on: hyperphosphorylated retinoblastoma protein (ppRB); assay: Immunoblot of hyperphosphorylated RB (ppRB) in NHEK lysates; format: cell-based, human; settings: 24 hr
Procedure: as §1, §2
(§3) NHEK cells were seeded in 6-well plates and grown until semi-confluent in KGM-2. […] Total protein concentration of the lysates was determined using the BCA protein assay (Pierce Chemicals, Rockford, Ill.). […]

p27^kip1/waf1 [6] = assay: Immunoblot of p27^kip1/waf1 protein level in NHEK lysates; format: cell-based, human; settings: 24 hr
Procedure: as §1, §2, §3

FGFR1iiib receptor = settings: cited from earlier work

Molecule: C#Cc1cccc(Nc2ncnc3cc(OCCOC)c(OCCOC)cc23)c1 [CP-358,774, [6,7-bis(2-methoxy-ethoxy)-quinazolin-4-yl]-(3-ethynylphenyl)amine]
- cell cycle arrest (accumulation of cells in G1 phase) [1]: causes cell cycle arrest
- effect on hyper-phosphorylated retinoblastoma protein (ppRB) [2]: causes depletion
- effect on cyclin-dependent kinase inhibitor p27^kip1/waf1 (p27^kip1/waf1 [3]): accumulation

Molecule: C#Cc1cccc(Nc2ncnc3cc(OCCOC)c(OCCOC)cc23)c1.Cl [Compound A]
- % G1 ([4]; 0.3 μM Compound A): 75%
- % G2 ([4]; 0.3 μM Compound A): 11%
- % S ([4]; 0.3 μM Compound A): 13%
- % G1 ([4]; 1 μM Compound A): 85%
- % G2 ([4]; 1 μM Compound A): 10%
- % S ([4]; 1 μM Compound A): 6.0%
- effect on cell cycle phase distribution (in words) [4]: concentration dependent accumulation of cells in the G1 phase of the cell cycle and a corresponding decrease in the S-phase fraction
- ppRB signal on RB immunoblot ([5]; 0.3 μM Compound A): dramatically reduced
- ppRB band on RB immunoblot ([5]; 1 μM Compound A): completely abolished
- induction of p27^kip1/waf1 protein levels (p27^kip1/waf1 [6]; 0.3 μM Compound A): 3.9 fold
- induction of p27^kip1/waf1 (p27^kip1/waf1 [6]; 1 μM Compound A): 5.2 fold

B1: KGF-2: keratinocyte growth factor family member, also known as FGF-10 (protein, UniProt O15520 38-208, looked up)
Fibroblast growth factor 10: QALGQDMVSPEATNSSSSSFSSPSSAGRHVRSYNHLQGDVRWRKLFSFTKYFLKIEKNGKVSGTKKENCPYSILEITSVEIGVVAVKAINSNYYLAMNKKGKLYGSKEFNNDCKLKERIEENGYNTYASFNWQHNGRQMYVALNGKGAPRRGQKTRRKNTSAHFLPMVVHS
- binding to FGFR1iiib receptor (FGFR1iiib receptor): high affinity

B2: KGF: Human recombinant KGF expressed in E. coli as a 19 kDa protein, purchased from Sigma Chemical Co. (protein, UniProt P21781 32-194, looked up)
Fibroblast growth factor 7: CNDMTPEQMATNVNCSSPERHTRSYDYMEGGDIRVRRLFCRTQWYLRIDKRGKVKGTQEMKNNYNIMEIRTVAVGIVAIKGVESEFYLAMNKEGKLYAKKECNEDCNFKELILENHYNTYASAKWTHNGGEMFVALNQKGIPVRGKKTKKEQKTAHFLPMAIT
- % G1 ([4]; 20 ng/ml KGF alone): 52%
- % G2 ([4]; 20 ng/ml KGF alone): 13%
- % S ([4]; 20 ng/ml KGF alone): 34%
- effect on cell cycle phase distribution (in words) [4]: no significant effect

B3: KGF-1: keratinocyte growth factor family member, also known as FGF-7 (protein, UniProt P21781 32-194, looked up)
Fibroblast growth factor 7: CNDMTPEQMATNVNCSSPERHTRSYDYMEGGDIRVRRLFCRTQWYLRIDKRGKVKGTQEMKNNYNIMEIRTVAVGIVAIKGVESEFYLAMNKEGKLYAKKECNEDCNFKELILENHYNTYASAKWTHNGGEMFVALNQKGIPVRGKKTKKEQKTAHFLPMAIT
- binding to FGFR1iiib receptor (FGFR1iiib receptor): high affinity
